The values below are quoted from earlier work in PubChem BioAssay AID1259409 (Chemical Carcinogenesis Research Information System (CCRIS), 2018).

For this series, the system named is rodent chemically induced tumor inhibition, incidence and multiplicity. Briefly: CCRIS tumor inhibitor studies. The note with it: for tumour outcome (control, treated, inhibition, significance): Dose [Inhibitor]: 0.

Turning to `C=CCSCC=C`, the “tumour outcome (control, treated, inhibition, significance)” value is 3/16 (19%), 0/18 (0%), 100%, not calculated (Carcinogen: DIETHYLNITROSAMINE, 55-18-5, N-METHYL-N-NITROSOUREA, 684-93-5, N,N-DIBUTYLNITROSAMINE, 924-16-3, Carcinogen: DIETHYLNITROSAMINE, 55-18-5, N-METHYL-N-NITROSOUREA, 684-93-5, N,N-DIBUTYLNITROSAMINE, 924-16-3, 0.5% IN DIET BEGINNING POST CARCINOGEN TREATMENT AND CONTINUING TO WK 40 (STUDY DURATION: 40 WK), Route [Inhibitor]: ORAL, Species: RAT, Strain/Sex: F344/MALE, Target Tissue: Type of Lesion: LUNG: CARCINOMA, Dose [Carcinogen]: 100 MG/KG DIETHYLNITROSAMINE ONCE FOLLOWED BY 20 MG/KG N-METHYL-N-NITROSOUREA ON D 2, 5, 8 AND 11 THEN 0.05% N-N-DIBUTYL, Promoter: NONE USED); 8/16 (50%), 2/18 (11%), 78%, p<0.02 (Carcinogen: DIETHYLNITROSAMINE, 55-18-5, N-METHYL-N-NITROSOUREA, 684-93-5, N,N-DIBUTYLNITROSAMINE, 924-16-3, Carcinogen: DIETHYLNITROSAMINE, 55-18-5, N-METHYL-N-NITROSOUREA, 684-93-5, N,N-DIBUTYLNITROSAMINE, 924-16-3, 0.5% IN DIET BEGINNING POST CARCINOGEN TREATMENT AND CONTINUING TO WK 40 (STUDY DURATION: 40 WK), Route [Inhibitor]: ORAL, Species: RAT, Strain/Sex: F344/MALE, Target Tissue: Type of Lesion: THYROID: ADENOMA, Dose [Carcinogen]: 100 MG/KG DIETHYLNITROSAMINE ONCE FOLLOWED BY 20 MG/KG N-METHYL-N-NITROSOUREA ON D 2, 5, 8 AND 11 THEN 0.05% N-N-DIBUTYL, Promoter: NONE USED); 2/16 (13%), 0/18 (0%), 100%, not calculated (Carcinogen: DIETHYLNITROSAMINE, 55-18-5, N-METHYL-N-NITROSOUREA, 684-93-5, N,N-DIBUTYLNITROSAMINE, 924-16-3, Carcinogen: DIETHYLNITROSAMINE, 55-18-5, N-METHYL-N-NITROSOUREA, 684-93-5, N,N-DIBUTYLNITROSAMINE, 924-16-3, 0.5% IN DIET BEGINNING POST CARCINOGEN TREATMENT AND CONTINUING TO WK 40 (STUDY DURATION: 40 WK), Route [Inhibitor]: ORAL, Species: RAT, Strain/Sex: F344/MALE, Target Tissue: Type of Lesion: THYROID: CARCINOMA, Dose [Carcinogen]: 100 MG/KG DIETHYLNITROSAMINE ONCE FOLLOWED BY 20 MG/KG N-METHYL-N-NITROSOUREA ON D 2, 5, 8 AND 11 THEN 0.05% N-N-DIBUTYL, Promoter: NONE USED); 1/16 (6%), 0/18 (0%), 100%, not calculated (Carcinogen: DIETHYLNITROSAMINE, 55-18-5, N-METHYL-N-NITROSOUREA, 684-93-5, N,N-DIBUTYLNITROSAMINE, 924-16-3, Carcinogen: DIETHYLNITROSAMINE, 55-18-5, N-METHYL-N-NITROSOUREA, 684-93-5, N,N-DIBUTYLNITROSAMINE, 924-16-3, 0.5% IN DIET BEGINNING POST CARCINOGEN TREATMENT AND CONTINUING TO WK 40 (STUDY DURATION: 40 WK), Route [Inhibitor]: ORAL, Species: RAT, Strain/Sex: F344/MALE, Target Tissue: Type of Lesion: URINARY BLADDER: CARCINOMA, Dose [Carcinogen]: 100 MG/KG DIETHYLNITROSAMINE ONCE FOLLOWED BY 20 MG/KG N-METHYL-N-NITROSOUREA ON D 2, 5, 8 AND 11 THEN 0.05% N-N-DIBUTYL, Promoter: NONE USED); 4/16 (25%), 2/18 (11%), 56%, not calculated (Carcinogen: DIETHYLNITROSAMINE, 55-18-5, N-METHYL-N-NITROSOUREA, 684-93-5 N,N-DIBUTYLNITROSAMINE, 924-16-3, Carcinogen: DIETHYLNITROSAMINE, 55-18-5, N-METHYL-N-NITROSOUREA, 684-93-5 N,N-DIBUTYLNITROSAMINE, 924-16-3, 0.5% IN DIET BEGINNING POST CARCINOGEN TREATMENT AND CONTINUING TO WK 40 (STUDY DURATION: 40 WK), Route [Inhibitor]: ORAL, Species: RAT, Strain/Sex: F344/MALE, Target Tissue: Type of Lesion: URINARY BLADDER: PAPILLOMA, Dose [Carcinogen]: 100 MG/KG DIETHYLNITROSAMINE ONCE FOLLOWED BY 20 MG/KG N-METHYL-N-NITROSOUREA ON D 2, 5, 8 AND 11 THEN 0.05% N-N-DIBUTYL, Promoter: NONE USED); 5/20 (25%), 8/19 (42%), -68%, not calculated (Carcinogen: DIETHYLNITROSAMINE, 55-18-5, N-METHYL-NITROSOUREA, 684-93-5, N,N'-DIMETHYLHYDRAZINE, 540-73-8, N-BUTYL-N-(4-HYDROX, Carcinogen: DIETHYLNITROSAMINE, 55-18-5, N-METHYL-NITROSOUREA, 684-93-5, N,N'-DIMETHYLHYDRAZINE, 540-73-8, N-BUTYL-N-(4-HYDROX, 200 MG/KG BW IN CORN OIL 3/WK FOR 6 WK BEGINNING POST CARCINOGEN TREATMENT (STUDY DURATION: 28 WK), Route [Inhibitor]: GAVAGE, Species: RAT, Strain/Sex: F344/MALE, Target Tissue: Type of Lesion: KIDNEY: NEPHROBLASTOMA, Dose [Carcinogen]: 100 MG/KG BW DEN ONCE, 20 MG/KG BW MNU ONCE ON D 2, 5, 8 AND 11, 40 MG/KG BW DMH ON D 14, 17, 20 AND 23, 0.05% BHBN I, Dose [Carcinogen]: 100 MG/KG BW DEN ONCE, 20 MG/KG BW MNU ONCE ON D 2, 5, 8 AND 11, 40 MG/KG BW DMH ON D 14, 17, 20 AND 23, 0.05% BHBN I, Promoter: NONE USED). In addition, the “tumour outcome (control, treated, inhibition, significance)” value is, setting by setting: (Carcinogen: DIETHYLNITROSAMINE, 55-18-5, N-METHYL-NITROSOUREA, 684-93-5, N,N'-DIMETHYLHYDRAZINE, 540-73-8, N-BUTYL-N-(4-HYDROX, Carcinogen: DIETHYLNITROSAMINE, 55-18-5, N-METHYL-NITROSOUREA, 684-93-5, N,N'-DIMETHYLHYDRAZINE, 540-73-8, N-BUTYL-N-(4-HYDROX, 200 MG/KG BW IN CORN OIL 3/WK FOR 6 WK BEGINNING POST CARCINOGEN TREATMENT (STUDY DURATION: 28 WK), Route [Inhibitor]: GAVAGE, Species: RAT, Strain/Sex: F344/MALE, Target Tissue: Type of Lesion: KIDNEY: RENAL CELL CARCINOMA, Dose [Carcinogen]: 100 MG/KG BW DEN ONCE, 20 MG/KG BW MNU ONCE ON D 2, 5, 8 AND 11, 40 MG/KG BW DMH ON D 14, 17, 20 AND 23, 0.05% BHBN I, Dose [Carcinogen]: 100 MG/KG BW DEN ONCE, 20 MG/KG BW MNU ONCE ON D 2, 5, 8 AND 11, 40 MG/KG BW DMH ON D 14, 17, 20 AND 23, 0.05% BHBN I, Promoter: NONE USED) 1/20 (5%), 0/19 (0%), 100%, not calculated; (Carcinogen: N-NITROSOMETHYLBENZYLAMINE, 937-40-6, 10 MG/KG IN CORN OIL 1/WK FOR 5 WK BEGINNING 3 HR PRIOR TO CARCINOGEN TREATMENT (STUDY DURATION: 15 WK), Route [Inhibitor]: GAVAGE, Species: RAT, Strain/Sex: SPRAGUE-DAWLEY/MALE, Target Tissue: Type of Lesion: ESOPHAGUS: TUMOR, Dose [Carcinogen]: 3 MG/KG 1/WK FOR 5 WK, Promoter: NONE USED) 96%, 90%, 6%, not significant; (Carcinogen: N-NITROSOMETHYLBENZYLAMINE, 937-40-6, 100 MG/KG IN CORN OIL 1/WK FOR 5 WK BEGINNING 3 HR PRIOR TO CARCINOGEN TREATMENT (STUDY DURATION: 15 WK), Route [Inhibitor]: GAVAGE, Species: RAT, Strain/Sex: SPRAGUE-DAWLEY/MALE, Target Tissue: Type of Lesion: ESOPHAGUS: TUMOR, Dose [Carcinogen]: 3 MG/KG 1/WK FOR 5 WK, Promoter: NONE USED) 96%, 63%, 34%, p<0.05; (Carcinogen: N-NITROSOMETHYLBENZYLAMINE, 937-40-6, 200 MG/KG IN CORN OIL 1/WK FOR 5 WK BEGINNING POST CARCINOGEN TREATMENT (STUDY DURATION: 15 WK), Route [Inhibitor]: GAVAGE, Species: RAT, Strain/Sex: SPRAGUE-DAWLEY/MALE, Target Tissue: Type of Lesion: ESOPHAGUS: TUMOR, Dose [Carcinogen]: 3 MG/KG 1/WK FOR 5 WK, Promoter: NONE USED) 96%, 96%, 0%, not significant; (Carcinogen: VINYL CARBAMATE, 15805-73-9, 8 UMOL IN 0.1 MOLAR STERILIZED POTASSIUM BUFFER ONCE 10 MIN PRIOR TO CARCINOGEN DOSE (STUDY DURATION: 22 WK), Route [Inhibitor]: GAVAGE, Species: MOUSE, Strain/Sex: ICR/FEMALE, Target Tissue: Type of Lesion: SKIN: PAPILLOMA, Dose [Carcinogen]: 5.8 UMOL IN 0.2 ML ACETONE ONCE, Promoter: 12-O-TETRADECANOYLPHORBOL 13-ACETATE, 16561-29-8) 70%, 57%, 19%, not significant; (Carcinogen: VINYL CARBAMATE, 15805-73-9, 200 MG/KG BW ONCE AT 2 HR AND 1 D PRIOR TO CARCINOGEN DOSE (STUDY DURATION: 22 WK), Route [Inhibitor]: GAVAGE, Species: MOUSE, Strain/Sex: CD-1/FEMALE, Target Tissue: Type of Lesion: SKIN: PAPILLOMA, Dose [Carcinogen]: 11.5 UMOL IN 0.2 ML ACETONE ONCE, Promoter: 12-O-TETRADECANOYLPHORBOL-13-ACETATE, 16561-29-8) 58%, 29%, 50%, not calculated. For the same compound, the outcome (Carcinogen: N-NITROSOMETHYLBENZYLAMINE, 937-40-6, Dose [Inhibitor]: 200 MG/KG BW IN CORN OIL 1/WK FOR 5 WK BEGINNING 3 HR PRIOR TO EACH CARCINOGEN DOSE (STUDY DURATION: 15 WK), Route [Inhibitor]: GAVAGE, Species: RAT, Strain/Sex: SPRAGUE-DAWLEY/MALE, Target Tissue: Type of Lesion: ESOPHAGUS: TUMOR, Dose [Carcinogen]: 3.5 MG/KG BW 1/WK FOR 5 WK, Promoter: NONE USED) is listed as 79%, 0, 100%, p<0.001.
